Measured values published in patent publication US20100210700A1, “METHODS OF TREATMENT USING INTRAVENOUS FORMULATIONS COMPRISING TEMOZOLOMIDE” (SCHERING CORPORATION, priority 2007, published 2010).
Like-named read-outs stand apart in the source and are kept apart here.

Key:
[1] = Two-way crossover pilot bioavailability study, IV (1-hour infusion) vs PO temozolomide; type: in vivo, human; conditions: for bioavailability / AUC / Cmax: human, plasma; for bioavailability: po, 150 mg/m^2/day, humans, n=13 patients; for AUC / Cmax: n = 13
Protocol: To validate the IV PK model, the first pass effects and oral bioavailability were determined in a two-way crossover pilot bioavailability study. This was a Phase-1, randomized, open-label pilot study designed to compare the relative bioavailability of IV and PO temozolomide in adult patients with histologically confirmed primary CNS malignancies. The study was conducted in conformance with Good Clinical Practices. Up to 18 patients (to yield 12 evaluable patients) were planned to be enrolled at 1 or 2 centers. 13 patients were enrolled at 2 centers (7 at Center 1, 6 at Center 2). All 13 patients were included in pharmacokinetic and safety analyses. Patients were followed for 23 days after treatment ended for safety evaluations.
After fulfilling all study eligibility requirements, the patients received temozolomide for 5 days (Days 1 to 5) during a 4-week treatment cycle. On Days 1, 2, and 5, patients received temozolomide (200 mg/m^2/day) as a PO dose. On Days 3 and 4, patients received Temozolomide (150 mg/m^2/day) as a PO dose on one day and as an IV dose on the other day. The IV dose was administered by 1-hour infusion (using an infusion pump) either on Day 3 or Day 4 according to a random code. Pharmacokinetic evaluations were performed on Days 3 and 4 for determination of concentrations of temozolomide and MTIC in plasma.

[2] = Clinical bioequivalence study, IV (1.5-hr infusion) vs oral TMZ, primary CNS malignancies; type: in vivo, human; conditions: for Tmax / half-life / AUC / Cmax / concentration at 0 hr / concentration at 0.25 hr / concentration at 0.5 hr / concentration at 1 hr / concentration at 1.25 hr / concentration at 1.5 hr / concentration at 1.75 hr / concentration at 2 hr / concentration at 2.5 hr / concentration at 3 hr / concentration at 4 hr / concentration at 6 hr / concentration at 8 hr: human, plasma; for Tmax: read-out: Tmax, Median (range); for half-life: read-out: t½ terminal-phase half-life, Mean (CV, %) (converted); for concentration at 0 hr / concentration at 0.25 hr / concentration at 0.5 hr / concentration at 1 hr / concentration at 1.25 hr / concentration at 1.5 hr / concentration at 1.75 hr / concentration at 2 hr / concentration at 2.5 hr / concentration at 3 hr / concentration at 4 hr / concentration at 6 hr / concentration at 8 hr: read-out: Mean Temozolomide Concentration
Protocol: Twenty-two patients with primary CNS malignancies were enrolled in a clinical bioequivalence study and treated according to the methods of the present invention. Nineteen of the patients were considered to be pharmacokinetic evaluable. This study was a randomized, open-label, 2-way cross over study of the PK of oral and IV TMZ. The IV formulation of Example 3 is administered at a dosage of 150-200 mg/m^2 by intravenous infusion over a period of about 1.5 hours.
The patients are divided into two groups, those receiving Treatment A and those receiving Treatment B. The Treatment A patients receive oral TMZ (200 mg/m^2) on Days 1, 2 and 5, IV TMZ 150 mg/m2 on Day 3, and oral TMZ (150 mg/m^2) on Day 4 of a 28 day cycle. The Treatment B patients receive oral TMZ (200 mg/m^2) on Days 1, 2 and 5, Oral TMZ (150 mg/m^2) on Day 3 and IV TMZ (150 mg/m^2) on Day 4 of a 28 day cycle. Cmax and AUC for TMZ and MTIC are determined according to methods known to those skilled in the art on Days 3 and 4.

[3] = PO TMZ, Dose = 150 mg/m^2, Actual n = 12; cited from earlier work
[4] = 1-hour infusion vs PO, 150 mg/m2/day
[5] = 1.5-hr infusion vs PO, 150 mg/m^2/day, n = 19
[6] = TMZ IV 1.5 hr infusion, 150 mg/m^2/day, n = 19
[7] = 150 mg/m2, TMZ PO, 150 mg/m^2/day, n = 19
[8] = IV 1.5 hr infusion, 150 mg/m^2/day, n = 19
[9] = IV 1.5 hr infusion, 150 mg/m^2/day, n = 18

For Cn1nnc2c(C(N)=O)ncn2c1=O [TMZ, 3,4-dihydro-3-methyl-4-oxoimidazo[5,1-d]-as-tetrazine-8-carboxamide], the “AUC Ratio Estimate IV/PO” value [1, 4] was 104%, the “AUC ratio IV/PO, 90% C.I.” value [1, 4] was 97-112% and the “Cmax Ratio Estimate IV/PO” value [1, 4] was 114%. The “Cmax ratio IV/PO, 90% C.I.” value [1, 4] was 100-131%, the bioavailability ([1]; read-out: oral bioavailability) was 96% and the bioavailability ([1]; read-out: oral bioavailability, range) was 89 to 100%. It also gave an AUC ([1]; TMZ IV 1-hour infusion, 150 mg/m2/day, read-out: AUC of TMZ, IV Mean (least-squares)) of 21500 ng·h/mL, a Cmax ([1]; TMZ IV 1-hour infusion, 150 mg/m2/day, read-out: Cmax of TMZ, IV Mean (least-squares)) of 7100 ng/mL and an AUC ([1]; TMZ PO, 150 mg/m2/day, read-out: AUC of TMZ, PO Mean (least-squares)) of 20700 ng·h/mL. The Cmax ([1]; TMZ PO, 150 mg/m2/day, read-out: Cmax of TMZ, PO Mean (least-squares)) was 6200 ng/mL, the “AUC(I) Ratio Estimate IV to PO” value [2, 5] was 105% and the “AUC(I) ratio IV to PO, 90% Confidence Interval” value [2, 5] was 102-108%. For the same compound, the “AUC(tf) Ratio Estimate IV to PO” value [2, 5] was 106%, the “AUC(tf) ratio IV to PO, 90% Confidence Interval” value [2, 5] was 103-109% and the “Cmax Ratio Estimate IV to PO” value [2, 5] was 97%. The “Cmax ratio IV to PO, 90% Confidence Interval” value [2, 5] was 91-102%, the “bioequivalence of IV (1.5-hr infusion) and oral formulations” value ([2]; Cmax, AUC(tf), AUC(I) of temozolomide and MTIC, n=19) was “bioequivalent” and the “tf time of final quantifiable sample, Mean (CV, %)” value [2, 6] was 8.00 (0) hr. For the same compound, the “tf time of final quantifiable sample, Mean (CV, %)” value ([2]; TMZ PO, 150 mg/m^2/day, n = 19) was 8.00 (0) hr, the Tmax [2, 7] was 1 h and the half-life [2, 7] was 1.91 h. For the same compound, the AUC ([2]; iv, 150 mg/m2, IV infusion about 1 hour to about 2 hours, single dose of 150 mg/m2, read-out: arithmetic AUC (from time zero to infinity) for temozolomide, range) was 17600 to 37000 ng·h/mL, the Cmax ([2]; iv, 150 mg/m2, IV infusion about 1 hour to about 2 hours, single dose of 150 mg/m2, read-out: arithmetic maximum plasma concentration (Cmax) of temozolomide, range) was 5500 to 10600 ng/mL and the AUC ([2]; iv, 150 mg/m2, IV infusion about 1 hour to about 2 hours, single dose of 150 mg/m2, read-out: arithmetic mean AUC (from time zero to infinity) for temozolomide) was ~25000 ng·h/mL. It also gave a Cmax ([2]; iv, 150 mg/m2, IV infusion about 1 hour to about 2 hours, single dose of 150 mg/m2, read-out: arithmetic mean maximum plasma concentration (Cmax) of temozolomide) of ~7400 ng/mL, an AUC ([2]; iv, 150 mg/m2, arithmetic mean AUC (from time zero to infinity) for temozolomide, IV infusion about 1 hour to about 2 hours, single dose of 150 mg/m2, heading: arithmetic mean AUC for temozolomide) of ~25000 ng·h/mL and an AUC ([2]; iv, 150 mg/m^2/day, TMZ IV 1.5 hr infusion, 150 mg/m^2/day, n = 19, read-out: AUC(I) of TMZ, Mean) of 25000 ng·h/mL. The AUC ([2]; iv, 150 mg/m^2/day, TMZ IV 1.5 hr infusion, 150 mg/m^2/day, n = 19, read-out: AUC(tf) of TMZ, Mean) was 23400 ng·h/mL, the Cmax ([2]; iv, 150 mg/m^2/day, TMZ IV 1.5 hr infusion, 150 mg/m^2/day, n = 19, read-out: Cmax of TMZ, arithmetic Mean) was 7440 ng/mL and the AUC ([2]; iv, 150 mg/m^2/day, TMZ IV 1.5 hr infusion, 150 mg/m^2/day, n = 19 PE, read-out: AUC(I) of TMZ, IV Mean (least-squares)) was 24600 ng·h/mL. The AUC ([2]; iv, 150 mg/m^2/day, TMZ IV 1.5 hr infusion, 150 mg/m^2/day, n = 19 PE, read-out: AUC(tf) of TMZ, IV Mean (least-squares)) was 23100 ng·h/mL, the Cmax ([2]; iv, 150 mg/m^2/day, TMZ IV 1.5 hr infusion, 150 mg/m^2/day, n = 19 PE, read-out: Cmax of TMZ, IV Mean (least-squares)) was 7290 ng/mL and the AUC ([2]; po, 150 mg/m2, TMZ PO, 150 mg/m^2/day, n = 19, read-out: AUC(I) of TMZ, Mean) was 23600 ng·h/mL. The AUC ([2]; po, 150 mg/m2, TMZ PO, 150 mg/m^2/day, n = 19, read-out: AUC(tf) of TMZ, Mean) was 22000 ng·h/mL, the Cmax ([2]; po, 150 mg/m2, TMZ PO, 150 mg/m^2/day, n = 19, read-out: Cmax of TMZ, arithmetic Mean) was 7680 ng/mL and the AUC ([2]; po, 150 mg/m2, TMZ PO, 150 mg/m^2/day, n = 19 PE, read-out: AUC(I) of TMZ, PO Mean (least-squares)) was 23400 ng·h/mL. The AUC ([2]; po, 150 mg/m2, TMZ PO, 150 mg/m^2/day, n = 19 PE, read-out: AUC(tf) of TMZ, PO Mean (least-squares)) was 21800 ng·h/mL, the Cmax ([2]; po, 150 mg/m2, TMZ PO, 150 mg/m^2/day, n = 19 PE, read-out: Cmax of TMZ, PO Mean (least-squares)) was 7540 ng/mL and the concentration at 0 hr [2, 8] was 0 ng/mL. For the same compound, the concentration at 0.25 hr [2, 9] was 2380 ng/mL, the concentration at 0.5 hr [2, 8] was 3670 ng/mL and the concentration at 1 hr [2, 8] was 5490 ng/mL. For the same compound, the concentration at 1.25 hr [2, 9] was 6590 ng/mL, the concentration at 1.5 hr [2, 8] was 7080 ng/mL and the concentration at 1.75 hr [2, 8] was 6100 ng/mL. For the same compound, the concentration at 2 hr [2, 8] was 5600 ng/mL, the concentration at 2.5 hr [2, 8] was 4590 ng/mL and the concentration at 3 hr [2, 9] was 3860 ng/mL. The concentration at 4 hr [2, 8] was 2810 ng/mL, the concentration at 6 hr [2, 8] was 1200 ng/mL and the concentration at 8 hr [2, 8] was 590 ng/mL. It also gave a concentration at 0 hr ([2]; PO, 150 mg/m^2/day, n = 19) of 0 ng/mL, a concentration at 0.25 hr ([2]; PO, 150 mg/m^2/day, n = 19) of 2110 ng/mL and a concentration at 0.5 hr ([2]; PO, 150 mg/m^2/day, n = 19) of 5320 ng/mL. The concentration at 1 hr ([2]; PO, 150 mg/m^2/day, n = 19) was 6050 ng/mL, the concentration at 1.25 hr ([2]; PO, 150 mg/m^2/day, n = 18) was 6120 ng/mL and the concentration at 1.5 hr ([2]; PO, 150 mg/m^2/day, n = 19) was 5770 ng/mL. It also gave a concentration at 1.75 hr ([2]; PO, 150 mg/m^2/day, n = 18) of 5360 ng/mL, a concentration at 2 hr ([2]; PO, 150 mg/m^2/day, n = 19) of 4890 ng/mL and a concentration at 2.5 hr ([2]; PO, 150 mg/m^2/day, n = 19) of 4000 ng/mL. It also gave a concentration at 3 hr ([2]; PO, 150 mg/m^2/day, n = 19) of 3440 ng/mL, a concentration at 4 hr ([2]; PO, 150 mg/m^2/day, n = 19) of 2410 ng/mL and a concentration at 6 hr ([2]; PO, 150 mg/m^2/day, n = 19) of 1170 ng/mL. For the same compound, the concentration at 8 hr ([2]; PO, 150 mg/m^2/day, n = 19) was 560 ng/mL, the Tmax [2, 6] was 1.5 h and the half-life [2, 6] was 1.82 h. For the same compound, the Maximum AUC [3] was 35400 ng·h/mL, the Maximum Cmax [3] was 16800 ng/mL and the Mean AUC [3] was 24800 ng·h/mL. For the same compound, the Mean Cmax [3] was 8800 ng/mL, the Minimum AUC [3] was 17700 ng·h/mL and the Minimum Cmax [3] was 2600 ng/mL.
